Reference: paper PMC7914639, “Antioxidant, Pancreatic Lipase Inhibitory, and Tyrosinase Inhibitory Activities of Extracts of the Invasive Plant Spartina anglica (Cord-Grass)” (Antioxidants, 2021)

Key:
[1] = ABTS radical-scavenging assay; conditions: for ABTS Radical Scavenging (%): Table S4; for IC50: read-out: Radical Scavenging Activity Against ABTS IC50
Protocol: ABTS radical-scavenging activity was measured using a modified method of Re et al.. The ABTS stock solution was diluted in water to a concentration of 7.4 mM. The ABTS radical was produced by mixing ABTS stock solution with 2.45 mM potassium persulfate and incubating in dark for 12 h at room temperature. The ABTS solution was diluted with ethanol to obtain an absorbance (Ablank) of 0.70 ± 0.02 at 415 nm. After adding 95 μL of diluted ABTS solution to 5 μL of the sample, the mixture was incubated at room temperature for 15 min in dark. The absorbance (Asample) at 415 nm was measured using a microplate reader (Model Infinite M200 PRO; Tecan, Austria). The blank was prepared using the same procedure with deionized water instead of the sample. The ABTS radical scavenging activity was calculated as a percentage using the Equation (2) ABTS radical scavenging activity (%) = [1 − (Asample/Ablank)] × 100(2)

tyrosinase [2] = biological target: tyrosinase; parameters: method as in doi:10.1007/s10600-014-1030-9; conditions: compound isolated from pollen of Calendula officinalis; cited from earlier work
[3] = biological target: T1, porcine pancreatic lipase (Sus scrofa, UniProt P00591); test: Pancreatic lipase inhibition assay (p-NPB hydrolysis); format: biochemical; conditions: for inhibition at 10 µg/mL: 10 μg/mL; for inhibition at 25 µg/mL: 25 μg/mL; for inhibition at 50 µg/mL: 50 μg/mL
T1 construct: purchased Sigma-Aldrich (St. Louis, MO, USA) Type II
T1 sequence (P00591 1-450): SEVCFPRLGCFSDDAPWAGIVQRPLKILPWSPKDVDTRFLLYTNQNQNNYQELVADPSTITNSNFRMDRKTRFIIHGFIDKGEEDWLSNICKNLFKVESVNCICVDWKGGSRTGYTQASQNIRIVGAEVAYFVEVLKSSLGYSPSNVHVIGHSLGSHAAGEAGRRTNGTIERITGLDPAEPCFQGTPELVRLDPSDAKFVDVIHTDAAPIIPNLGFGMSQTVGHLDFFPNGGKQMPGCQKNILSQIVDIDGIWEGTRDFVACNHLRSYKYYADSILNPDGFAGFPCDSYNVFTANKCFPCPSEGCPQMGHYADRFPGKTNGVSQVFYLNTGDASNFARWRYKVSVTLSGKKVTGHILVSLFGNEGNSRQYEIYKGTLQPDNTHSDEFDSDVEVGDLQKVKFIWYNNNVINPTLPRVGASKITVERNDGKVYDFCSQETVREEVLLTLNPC
Protocol: Pancreatic lipase activity was measured using the method previously reported by Kim et al.. An enzyme buffer was prepared by the addition of 6 μL of porcine pancreatic lipase solution (Sigma-Aldrich, St. Louis, MO, USA) in a buffer (10 mM morpholinepropanesulfonic acid and 1 mM EDTA, pH 6.8) to Tris buffer (169 μL, 100 mM Tris-HCl, and 5 mM CaCl2, pH 7.0). […] The enzymatic reaction mixtures were incubated at 37 °C for 35 min. Pancreatic lipase activity was determined by measuring the hydrolysis of p-NPB to p-nitrophenol, with absorption being recorded at 405 nm using a microplate reader (Model Infinite M200 PRO; Tecan, Austria). Inhibition of lipase activity was expressed in terms of the percentage reduction in absorbance when porcine pancreatic lipase was incubated with the test compounds, and calculated using the following Equation (4) Inhibition (%) = 100 − [(B − b)/(A − a) × 100](4) where A is the lipase activity without inhibitor, a is the negative control without inhibitor, B is the lipase activity with inhibitor, and b is the negative control with inhibitor. The results are expressed as an average (n = 4).

[4] = DPPH free radical-scavenging activity; conditions: for DPPH Radical Scavenging (%): Table S3; for IC50: read-out: Radical-Scavenging Activity Against DPPH IC50
Protocol: DPPH free radical-scavenging properties were evaluated using a previously reported method. Test sample (an extract, a fraction or a compound) in 100 μL of dimethyl sulfoxide (DMSO) (blank: 100 μL of DMSO solution) was added to 100 μL of an ethanolic solution of DPPH (60 μM) in the wells of a 96-well microplate. […] After the sample and the reagents had been mixed gently and incubated for 30 min at room temperature, the absorbance (A) at 540 nm was evaluated using a microplate reader (Model Infinite M200 PRO; Tecan, Austria). The free radical-scavenging activity was calculated as a percentage using the equation DPPH free radical-scavenging activity (%) = [1 − (Asample/Ablank)] × 100.(1)

tyrosinase [5] = biological target: tyrosinase; parameters: method as in PMID 12720364, doi:10.1021/jf980226+; conditions: compound isolated from cumin; cited from earlier work
[6] = system: microphthalmia-associated transcription factor, tyrosinase, and tyrosinase-related proteins; parameters: method as in PMID 30146944; conditions: compound isolated from stem extract of Aurea helianthus; cited from earlier work
[7] = system: human melanocyte tyrosinase; parameters: method as in PMID 16442796; conditions: at 100 μM; cited from earlier work
tyrosinase [8] = test: Tyrosinase inhibition assay (L-DOPA oxidation); format: biochemical; conditions: at 100 μg/mL
Protocol: The tyrosinase inhibition assay was performed using a modification of the method reported by Nerya et al.. A portion of a sample (20 μL) in DMSO (100 μg/mL) was mixed with 50 μL of 0.1 M potassium phosphate buffer (pH 6.8), to which was added 30 μL of 33 unit/mL tyrosinase and 100 μL of 12 mM L-3,4-dihydroxyphenylalanine (L-DOPA). The solution was mixed gently and the initial absorbance (Ainitial) was recorded at 492 nm using a microplate reader. The reaction mixture was then incubated at 37 °C for 4 min and thereafter the final absorbance (Afinal) was measured at 492 nm. Kojic acid was used as the reference drug. The tyrosinase inhibition activity was calculated as a percentage using the Equation (3) Tyrosinase inhibition activity (%) = [1 − (Afinal/Ainitial)] × 100(3)

Row | Radical Scavenging Activity Against ABTS IC50 [1] | IC50 [1] | inhibition at 10 µg/mL ([3]; Table S5) | inhibition at 25 µg/mL ([3]; Table S5) | inhibition at 50 µg/mL ([3]; Table S5) | inhibition at 100 µg/mL ([3]; 100 μg/mL, Table S5) | Radical-Scavenging Activity Against DPPH IC50 [4] | IC50 [4] | SMILES | ABTS Radical Scavenging (%) ([1]; 5 μg/mL) | ABTS Radical Scavenging (%) ([1]; 25 μg/mL) | ABTS Radical Scavenging (%) ([1]; 50 μg/mL) | DPPH Radical Scavenging (%) ([4]; 1 μg/mL) | DPPH Radical Scavenging (%) ([4]; 2 μg/mL) | DPPH Radical Scavenging (%) ([4]; 5 μg/mL) | DPPH Radical Scavenging (%) ([4]; 10 μg/mL) | DPPH Radical Scavenging (%) ([4]; 25 μg/mL) | DPPH Radical Scavenging (%) ([4]; 50 μg/mL) | DPPH Radical Scavenging (%) ([4]; 100 μg/mL) | DPPH Radical Scavenging (%) ([4]; 250 μg/mL) | DPPH Radical Scavenging (%) ([4]; 500 μg/mL) | other results
1 | 8.19 µg/mL | 26.1 µM | 14.76 ± 0.01% | 15.87 ± 0.02% | 16.96 ± 0.02% | 17.28 ± 0.02% | 4.67 µg/mL | 14.9 µM | COc1cc(/C=C/C(=O)NCCc2ccc(O)cc2)ccc1O [Compound 3, N-trans-feruloyltyramine] | 44.18 ± 2.64% | 78.71 ± 0.06% | 82.19 ± 1.38% | 0.86 ± 2.12% | 14.90 ± 1.63% | 54.29 ±0.30% | 63.25 ± 0.83% | 70.53 ± 1.74% | 78.51 ± 0.06% | 93.65 ± 1.70% | 95.51 ± 0.10% | 97.23 ± 0.33% | effect on microphthalmia-associated transcription factor, tyrosinase, and tyrosinase-related proteins [6]: downregulate; inhibition of human melanocyte tyrosinase [7]: 49 ± 4%
2 | 3.50 µg/mL | 19.9 µM |  |  |  |  | 1.17 µg/mL | 6.64 µM | O=C1O[C@H]([C@@H](O)CO)C(O)=C1O [L-Ascorbic acid, reference compound] | 70.41 ±0.28% | 99.75 ± 0.06% | 99.77 ± 0.08% | 45.09 ± 1.40% | 87.36 ± 2.24% | 97.41 ± 0.46% | 98.01 ± 0.07% | 97.50 ± 0.53% | 97.28 ± 0.27% | 97.03 ± 0.26% | 98.14 ± 0.15% |  | Radical-Scavenging Activity Against ABTS (%) ([1]; at 100 μg/mL): 99.5 ± 0.3 ^1%; Radical-Scavenging Activity Against DPPH (%) ([4]; at 100 μg/mL): 98.5 ± 0.2 ^1%

The next lines start with the compound.

Row | SMILES | Radical Scavenging Activity Against ABTS IC50 [1] | IC50 [1] | inhibition at 10 µg/mL ([3]; Table S5) | inhibition at 25 µg/mL ([3]; Table S5) | inhibition at 50 µg/mL ([3]; Table S5) | inhibition at 100 µg/mL ([3]; 100 μg/mL, Table S5) | Radical-Scavenging Activity Against DPPH IC50 [4] | IC50 [4] | ABTS Radical Scavenging (%) ([1]; 5 μg/mL) | ABTS Radical Scavenging (%) ([1]; 25 μg/mL) | ABTS Radical Scavenging (%) ([1]; 50 μg/mL) | DPPH Radical Scavenging (%) ([4]; 1 μg/mL) | DPPH Radical Scavenging (%) ([4]; 2 μg/mL) | DPPH Radical Scavenging (%) ([4]; 5 μg/mL) | DPPH Radical Scavenging (%) ([4]; 10 μg/mL) | DPPH Radical Scavenging (%) ([4]; 25 μg/mL) | DPPH Radical Scavenging (%) ([4]; 50 μg/mL) | DPPH Radical Scavenging (%) ([4]; 100 μg/mL) | DPPH Radical Scavenging (%) ([4]; 250 μg/mL) | DPPH Radical Scavenging (%) ([4]; 500 μg/mL) | other results
3 | COc1cc(/C=C/C(=O)O[C@@H]2C[C@@](OC(=O)/C=C/c3ccc(O)c(OC)c3)(C(=O)O)C[C@@H](O)[C@@H]2O)ccc1O [Compound 1, 1,3-di-O-trans-feruloyl-(−)-quinic acid] | 16.37 µg/mL | 30.1 µM | 0.73 ± 0.01% | 21.17 ± 0.01% | 37.95 ± 0.02% | 41.11 ± 0.01% | 9.53 µg/mL | 17.5 µM | 27.97 ± 4.11% | 66.31 ± 1.84% | 66.38 ± 1.47% | 11.87 ± 0.82% | 24.91 ± 0.78% | 38.70 ± 2.24% | 51.54 ± 1.30% | 82.94 ± 0.56% | 85.92 ± 1.27% | 89.88 ± 1.25% | 100.78 ± 1.46% | 101.99 ± 0.37% | IC50, activity of tyrosinase against diphenolase (tyrosinase [2]): 134.4 ± 4.8 µg/mL; IC50, activity of tyrosinase against monophenolase (tyrosinase [2]): 44.6 ± 1.5 µg/mL; IC50 [3]: 242 µM
4 | O=Cc1ccc(O)cc1 [Compound 2, p-hydroxybenzaldehyde] |  |  | 15.07 ± 0.01% | 36.64 ± 0.02% | 42.68 ± 0.01% | 52.6% |  |  | 2.03 ± 0.00% | 3.97 ± 0.43% | 8.71 ± 0.21% | 2.93 ± 2.39% | 2.73 ± 2.15% | 3.58 ± 1.79% | 4.43 ± 0.36% | 3.61 ± 1.11% | 3.78 ± 1.40% | 3.89 ±2.50% | 7.28 ± 0.80% | 8.66 ± 0.30% | IC50 (tyrosinase [5]): 820 µM; type of tyrosinase inhibition (tyrosinase [5]): non-competitive; IC50 [3]: 710 µM
5 | O=c1cc(CO)occ1O [Kojic acid] |  |  |  |  |  |  |  |  |  |  |  |  |  |  |  |  |  |  |  |  | Inhibition of L-DOPA Oxidation (%) (tyrosinase [8]): 98.6 ± 0.4 ^2%
6 | CCCCCCCCCCC[C@@H](C[C@@H]1OC(=O)[C@H]1CCCCCC)OC(=O)[C@H](CC(C)C)NC=O [Orlistat, orlistat, reference compound] |  |  |  |  |  |  |  |  |  |  |  |  |  |  |  |  |  |  |  |  | inhibition at 0.1 µg/mL ([3]; 0.10 μg/mL, Table S5): 22.98 ± 0.01%; inhibition at 0.25 µg/mL ([3]; 0.25 μg/mL, Table S5): 27.63 ± 0.01%; inhibition at 0.5 µg/mL ([3]; 0.50 μg/mL, Table S5): 51.17 ± 0.01%; inhibition at 1 µg/mL ([3]; 1.00 μg/mL, Table S5): 54.53 ± 0.02%; inhibition at 100 µg/mL ([3]; at 100 μg/mL): 67.8%
